According to patent US10294219B2 (priority 2015, dated 2019):
Where two headings read alike, the source gives them in different places.

How the values were obtained:
[1] = data from US20130324496A1, cited from earlier work
[2] = Light stability assessment (LS-3000 light test chamber, HPLC purity after illumination); assay type: physicochemical; settings: 1.2 million lux·hours of illumination, 4400 lux for 12 days, layer no more than 1 mm
From the text: Samples of different crystal forms were placed in a watch glass and spread to a thin layer with thickness of no more than 1 mm, placed in a LS-3000 light test chamber with a light intensity of 4400 lux for 12 days.
(2) The purity of the sample after illumination was checked by HPLC and compared with the initial purity.

[3] = Changes of crystal form at different temperatures; assay type: physicochemical
[4] = Solvent-based screening of crystal form changes; assay type: physicochemical
[5] = 100 mg suspended in 200 μL Ethyl acetate
[6] = 100 mg suspended in 200 μL MTBE

COC(=O)N[C@H](C(=O)N1CC2(CC2)C[C@H]1c1ncc(-c2ccc3c(c2)C(F)(F)c2cc(-c4ccc5nc([C@@H]6[C@H]7CC[C@H](C7)N6C(=O)[C@@H](NC(=O)OC)C(C)C)[nH]c5c4)ccc2-3)[nH]1)C(C)C [Ledipasvir amorphous, Ledipasvir]
HPLC purity decreased, % ([1]; 1.2 million lux·hours): 8.3%

COC(=O)N[C@H](C(=O)N1CC2(CC2)C[C@H]1c1ncc(-c2ccc3c(c2)C(F)(F)c2cc(-c4ccc5nc([C@@H]6[C@H]7CC[C@H](C7)N6C(=O)[C@@H](NC(=O)OC)C(C)C)[nH]c5c4)ccc2-3)[nH]1)C(C)C [Ledipasvir diacetone solvate]
HPLC purity decreased, % ([1]; 1.2 million lux·hours): 6.3%

COC(=O)N[C@H](C(=O)N1CC2(CC2)C[C@H]1c1ncc(-c2ccc3c(c2)C(F)(F)c2cc(-c4ccc5nc([C@@H]6[C@H]7CC[C@H](C7)N6C(=O)[C@@H](NC(=O)OC)C(C)C)[nH]c5c4)ccc2-3)[nH]1)C(C)C [crystal form A of Ledipasvir, LDV-acetonitrile-MTBE ternary solvate]
HPLC purity decreased, % [2]: 2.0% | HPLC purity decreased, % ([2]; listed as LDV-acetonitrile-MTBE ternary solvate): 2.0% | HPLC purity decreased, % ([2]; listed as Ledipasvir crystal form A): 2.0% | Crystal Form ([3]; 120° C., nitrogen protection): crystal form C | Crystal Form ([3]; 120° C., nitrogen protection, listed as crystal form A): crystal form C | Crystal Form ([3]; 180° C., nitrogen protection): amorphous form | Crystal Form ([3]; Room temperature): crystal form A | Solvent-based screening result (change of crystal form) ([4]; 100 mg suspended in 200 μL ACN): crystal form D | Solvent-based screening result (change of crystal form) [4, 5]: solution | Solvent-based screening result (change of crystal form) [4, 6]: amorphous form

COC(=O)N[C@H](C(=O)N1CC2(CC2)C[C@H]1c1ncc(-c2ccc3c(c2)C(F)(F)c2cc(-c4ccc5nc([C@@H]6[C@H]7CC[C@H](C7)N6C(=O)[C@@H](NC(=O)OC)C(C)C)[nH]c5c4)ccc2-3)[nH]1)C(C)C [crystal form B of Ledipasvir, LDV-acetone-MTBE ternary solvate]
HPLC purity decreased, % [2]: 0.6% | HPLC purity decreased, % ([2]; listed as LDV-acetone-MTBE ternary solvate): 0.6% | HPLC purity decreased, % ([2]; listed as Ledipasvir crystal form B): 0.6% | Crystal Form ([3]; 120° C., nitrogen protection): crystal form E | Crystal Form ([3]; 120° C., nitrogen protection, listed as crystal form B): crystal form E | Crystal Form ([3]; 180° C., nitrogen protection): amorphous form | Crystal Form ([3]; Room temperature): crystal form B | Solvent-based screening result (change of crystal form) ([4]; 100 mg suspended in 200 μL ACN): crystal form D | Solvent-based screening result (change of crystal form) [4, 5]: solution | Solvent-based screening result (change of crystal form) [4, 6]: amorphous form

COC(=O)N[C@H](C(=O)N1CC2(CC2)C[C@H]1c1ncc(-c2ccc3c(c2)C(F)(F)c2cc(-c4ccc5nc([C@@H]6[C@H]7CC[C@H](C7)N6C(=O)[C@@H](NC(=O)OC)C(C)C)[nH]c5c4)ccc2-3)[nH]1)C(C)C [crystal form I of Ledipasvir]
HPLC purity decreased, % ([1]; 900,000 lux·hours): 6.6%

COC(=O)N[C@H](C(=O)N1CC2(CC2)C[C@H]1c1ncc(-c2ccc3c(c2)C(F)(F)c2cc(-c4ccc5nc([C@@H]6[C@H]7CC[C@H](C7)N6C(=O)[C@@H](NC(=O)OC)C(C)C)[nH]c5c4)ccc2-3)[nH]1)C(C)C [crystal form II of Ledipasvir]
HPLC purity decreased, % ([1]; 1.2 million lux·hours): 6.3%

COC(=O)N[C@H](C(=O)N1CC2(CC2)C[C@H]1c1ncc(-c2ccc3c(c2)C(F)(F)c2cc(-c4ccc5nc([C@@H]6[C@H]7CC[C@H](C7)N6C(=O)[C@@H](NC(=O)OC)C(C)C)[nH]c5c4)ccc2-3)[nH]1)C(C)C [monoacetone solvate]
HPLC purity decreased, % ([1]; 1.2 million lux·hours): 6.3%
